test system: ChaGo-K-1; assay: Cell panel screen (CellTiter-Glo); format: cell-based, human; details: ChaGo-K-1 (Lung), 20 micromolar, 72 hrs
Experimental: (§1) All cells were obtained from the cell bank of the American Type Culture Collection (ATCC) and cultured in the supplier's recommended media supplemented with 10% FBS. The cell panel screen was measured using the CellTiter-Glo assay (Promega, Madison, WI) following a standard protocol. Briefly, cancer cells were seeded in 96-well plates and cultured overnight at 37°C with or without 5% CO2 in an incubator. Each compound was dissolved with limited DMSO and diluted to a certain concentration with culture medium and then added to the corresponding well of the cell plate. The final concentration of compound was 20 μM. The control cells (without treatment) received the same amount of DMSO and were incubated under the same conditions. After 72 h cultivation, 100 μL of the CellTiter-Glo reagent was added directly to each well for 10-minute incubation. The plate was then read on a FlexStation 3 microplate luminometer (Molecular Devices, USA) to monitor the luminescence signal generated by the luciferase-catalyzed reaction of luciferin and ATP. The percent of growth inhibition was calculated using the following formula: (untreated cells − treated cells)/(untreated cells − background without cells) ∗ 100.

| Structure (SMILES) | Percent Inhibition [%] |
| --- | --- |
| COc1c(CC=C(C)C)cc2c(=O)c3c(O)cc(O)cc3oc2c1OC [gl-6] | 59 |

test system: HEC-1-A; assay: Cell panel screen (CellTiter-Glo); format: cell-based, human; details: HEC-1-A (Uterus), 20 micromolar, 72 hrs
Experimental: as §1

| Structure (SMILES) | Percent Inhibition [%] |
| --- | --- |
| COc1c(CC=C(C)C)cc2c(=O)c3c(O)cc(O)cc3oc2c1OC [gl-6] | 40 |

test system: HCC1569; assay: Cell panel screen (CellTiter-Glo); format: cell-based, human; details: HCC1569 (Breast), 20 micromolar, 72 hrs
Experimental: as §1

| Structure (SMILES) | Percent Inhibition [%] |
| --- | --- |
| COc1c(CC=C(C)C)cc2c(=O)c3c(O)cc(O)cc3oc2c1OC [gl-6] | 34 |

test system: Colo 205; assay: Cell panel screen (CellTiter-Glo); format: cell-based, human; details: Colo 205, 20 micromolar, 72 hrs
Experimental: as §1

| Structure (SMILES) | Percent Inhibition [%] |
| --- | --- |
| COc1c(CC=C(C)C)cc2c(=O)c3c(O)cc(O)cc3oc2c1OC [gl-6] | 43 |

test system: C8166; assay: Cell panel screen (CellTiter-Glo); format: cell-based, human; details: C8166 (Leukemia), 20 micromolar, 72 hrs
Experimental: as §1

| Structure (SMILES) | Percent Inhibition [%] |
| --- | --- |
| COc1c(CC=C(C)C)cc2c(=O)c3c(O)cc(O)cc3oc2c1OC [gl-6] | 41 |

test system: HCC1599; assay: Cell panel screen (CellTiter-Glo); format: cell-based, human; details: HCC1599 (Breast), 20 micromolar, 72 hrs
Experimental: as §1

| Structure (SMILES) | Percent Inhibition [%] |
| --- | --- |
| COc1c(CC=C(C)C)cc2c(=O)c3c(O)cc(O)cc3oc2c1OC [gl-6] | 42 |

test system: M059J; assay: Cell panel screen (CellTiter-Glo); format: cell-based, human; details: M059J (Brain), 20 micromolar, 72 hrs
Experimental: as §1

| Structure (SMILES) | Percent Inhibition [%] |
| --- | --- |
| COc1c(CC=C(C)C)cc2c(=O)c3c(O)cc(O)cc3oc2c1OC [gl-6] | 44 |

test system: HPAF-II; assay: Cell panel screen (CellTiter-Glo); format: cell-based, human; details: HPAF-II (Pancreas), 20 micromolar, 72 hrs
Experimental: as §1

| Structure (SMILES) | Percent Inhibition [%] |
| --- | --- |
| COc1c(CC=C(C)C)cc2c(=O)c3c(O)cc(O)cc3oc2c1OC [gl-6] | 36 |

test system: NCI-H1770; assay: Cell panel screen (CellTiter-Glo); format: cell-based, human; details: NCI-H1770 (Lung), 20 micromolar, 72 hrs
Experimental: as §1

| Structure (SMILES) | Percent Inhibition [%] |
| --- | --- |
| COc1c(CC=C(C)C)cc2c(=O)c3c(O)cc(O)cc3oc2c1OC [gl-6] | 23 |

test system: HT-1197; assay: Cell panel screen (CellTiter-Glo); format: cell-based, human; details: HT-1197 (Urinary bladder), 20 micromolar, 72 hrs
Experimental: as §1

| Structure (SMILES) | Percent Inhibition [%] |
| --- | --- |
| COc1c(CC=C(C)C)cc2c(=O)c3c(O)cc(O)cc3oc2c1OC [gl-6] | 36 |

test system: T98G; assay: Cell panel screen (CellTiter-Glo); format: cell-based, human; details: T98G (Brain), 20 micromolar, 72 hrs
Experimental: as §1

| Structure (SMILES) | Percent Inhibition [%] |
| --- | --- |
| COc1c(CC=C(C)C)cc2c(=O)c3c(O)cc(O)cc3oc2c1OC [gl-6] | 31 |

test system: HCC1937; assay: Cell panel screen (CellTiter-Glo); format: cell-based, human; details: HCC1937 (Breast), 20 micromolar, 72 hrs
Experimental: as §1

| Structure (SMILES) | Percent Inhibition [%] |
| --- | --- |
| COc1c(CC=C(C)C)cc2c(=O)c3c(O)cc(O)cc3oc2c1OC [gl-6] | 32 |

test system: A704; assay: Cell panel screen (CellTiter-Glo); format: cell-based, human; details: A704 (Kidney), 20 micromolar, 72 hrs
Experimental: as §1

| Structure (SMILES) | Percent Inhibition [%] |
| --- | --- |
| COc1c(CC=C(C)C)cc2c(=O)c3c(O)cc(O)cc3oc2c1OC [gl-6] | 27 |

test system: NCI-H2405; assay: Cell panel screen (CellTiter-Glo); format: cell-based, human; details: NCI-H2405 (Lung), 20 micromolar, 72 hrs
Experimental: as §1

| Structure (SMILES) | Percent Inhibition [%] |
| --- | --- |
| COc1c(CC=C(C)C)cc2c(=O)c3c(O)cc(O)cc3oc2c1OC [gl-6] | 25 |

test system: HGC-27; assay: Cell panel screen (CellTiter-Glo); format: cell-based, human; details: HGC-27 (Stomach), 20 micromolar, 72 hrs
Experimental: as §1

| Structure (SMILES) | Percent Inhibition [%] |
| --- | --- |
| COc1c(CC=C(C)C)cc2c(=O)c3c(O)cc(O)cc3oc2c1OC [gl-6] | 55 |

test system: C3A; assay: Cell panel screen (CellTiter-Glo); format: cell-based, human; details: C3A (Liver), 20 micromolar, 72 hrs
Experimental: as §1

| Structure (SMILES) | Percent Inhibition [%] |
| --- | --- |
| COc1c(CC=C(C)C)cc2c(=O)c3c(O)cc(O)cc3oc2c1OC [gl-6] | 41 |

test system: NCI-H1694; assay: Cell panel screen (CellTiter-Glo); format: cell-based, human; details: NCI-H1694 (Lung), 20 micromolar, 72 hrs
Experimental: as §1

| Structure (SMILES) | Percent Inhibition [%] |
| --- | --- |
| COc1c(CC=C(C)C)cc2c(=O)c3c(O)cc(O)cc3oc2c1OC [gl-6] | 46 |

test system: NCI-H2347; assay: Cell panel screen (CellTiter-Glo); format: cell-based, human; details: NCI-H2347 (Lung), 20 micromolar, 72 hrs
Experimental: as §1

| Structure (SMILES) | Percent Inhibition [%] |
| --- | --- |
| COc1c(CC=C(C)C)cc2c(=O)c3c(O)cc(O)cc3oc2c1OC [gl-6] | 22 |

test system: CCF-STTG1; assay: Cell panel screen (CellTiter-Glo); format: cell-based, human; details: CCF-STTG1 (Brain), 20 micromolar, 72 hrs
Experimental: as §1

| Structure (SMILES) | Percent Inhibition [%] |
| --- | --- |
| COc1c(CC=C(C)C)cc2c(=O)c3c(O)cc(O)cc3oc2c1OC [gl-6] | 45 |

test system: HCC1395; assay: Cell panel screen (CellTiter-Glo); format: cell-based, human; details: HCC1395 (Breast), 20 micromolar, 72 hrs
Experimental: as §1

| Structure (SMILES) | Percent Inhibition [%] |
| --- | --- |
| COc1c(CC=C(C)C)cc2c(=O)c3c(O)cc(O)cc3oc2c1OC [gl-6] | 44 |

test system: Bel-7402; assay: Cell panel screen (CellTiter-Glo); format: cell-based, human; details: Bel-7402 (Liver), 20 micromolar, 72 hrs
Experimental: as §1

| Structure (SMILES) | Percent Inhibition [%] |
| --- | --- |
| COc1c(CC=C(C)C)cc2c(=O)c3c(O)cc(O)cc3oc2c1OC [gl-6] | 27 |

test system: NCI-H524; assay: Cell panel screen (CellTiter-Glo); format: cell-based, human; details: NCI-H524 (Lung), 20 micromolar, 72 hrs
Experimental: as §1

| Structure (SMILES) | Percent Inhibition [%] |
| --- | --- |
| COc1c(CC=C(C)C)cc2c(=O)c3c(O)cc(O)cc3oc2c1OC [gl-6] | 9 |

test system: BT-549; assay: Cell panel screen (CellTiter-Glo); format: cell-based, human; details: BT-549 (Breast), 20 micromolar, 72 hrs
Experimental: as §1

| Structure (SMILES) | Percent Inhibition [%] |
| --- | --- |
| COc1c(CC=C(C)C)cc2c(=O)c3c(O)cc(O)cc3oc2c1OC [gl-6] | 14 |

test system: J82; assay: Cell panel screen (CellTiter-Glo); format: cell-based, human; details: J82 (Urinary bladder), 20 micromolar, 72 hrs
Experimental: as §1

| Structure (SMILES) | Percent Inhibition [%] |
| --- | --- |
| COc1c(CC=C(C)C)cc2c(=O)c3c(O)cc(O)cc3oc2c1OC [gl-6] | 52 |

test system: T47D; assay: Cell panel screen (CellTiter-Glo); format: cell-based, human; details: T47D (Breast), 20 micromolar, 72 hrs
Experimental: as §1

| Structure (SMILES) | Percent Inhibition [%] |
| --- | --- |
| COc1c(CC=C(C)C)cc2c(=O)c3c(O)cc(O)cc3oc2c1OC [gl-6] | 31 |

test system: CW-2; assay: Cell panel screen (CellTiter-Glo); format: cell-based, human; details: CW-2 (Colon), 20 micromolar, 72 hrs
Experimental: as §1

| Structure (SMILES) | Percent Inhibition [%] |
| --- | --- |
| COc1c(CC=C(C)C)cc2c(=O)c3c(O)cc(O)cc3oc2c1OC [gl-6] | 51 |

test system: RL95; assay: Cell panel screen (CellTiter-Glo); format: cell-based, human; details: RL95 (Uterus), 20 micromolar, 72 hrs
Experimental: as §1

| Structure (SMILES) | Percent Inhibition [%] |
| --- | --- |
| COc1c(CC=C(C)C)cc2c(=O)c3c(O)cc(O)cc3oc2c1OC [gl-6] | 46 |

test system: NCI-H28; assay: Cell panel screen (CellTiter-Glo); format: cell-based, human; details: NCI-H28 (Lung), 20 micromolar, 72 hrs
Experimental: as §1

| Structure (SMILES) | Percent Inhibition [%] |
| --- | --- |
| COc1c(CC=C(C)C)cc2c(=O)c3c(O)cc(O)cc3oc2c1OC [gl-6] | 39 |

test system: A498; assay: Cell panel screen (CellTiter-Glo); format: cell-based, human; details: A498 (listed under Lung), 20 micromolar, 72 hrs
Experimental: as §1

| Structure (SMILES) | Percent Inhibition [%] |
| --- | --- |
| COc1c(CC=C(C)C)cc2c(=O)c3c(O)cc(O)cc3oc2c1OC [gl-6] | 47 |

test system: BT-474; assay: Cell panel screen (CellTiter-Glo); format: cell-based, human; details: BT-474 (Breast), 20 micromolar, 72 hrs
Experimental: as §1

| Structure (SMILES) | Percent Inhibition [%] |
| --- | --- |
| COc1c(CC=C(C)C)cc2c(=O)c3c(O)cc(O)cc3oc2c1OC [gl-6] | 25 |

test system: NCI-H1623; assay: Cell panel screen (CellTiter-Glo); format: cell-based, human; details: NCI-H1623 (Lung), 20 micromolar, 72 hrs
Experimental: as §1

| Structure (SMILES) | Percent Inhibition [%] |
| --- | --- |
| COc1c(CC=C(C)C)cc2c(=O)c3c(O)cc(O)cc3oc2c1OC [gl-6] | 14 |

test system: ZR-75-30; assay: Cell panel screen (CellTiter-Glo); format: cell-based, human; details: ZR-75-30 (Breast), 20 micromolar, 72 hrs
Experimental: as §1

| Structure (SMILES) | Percent Inhibition [%] |
| --- | --- |
| COc1c(CC=C(C)C)cc2c(=O)c3c(O)cc(O)cc3oc2c1OC [gl-6] | 90 |

test system: SW13; assay: Cell panel screen (CellTiter-Glo); format: cell-based, human; details: SW13 (Adrenal gland), 20 micromolar, 72 hrs
Experimental: as §1

| Structure (SMILES) | Percent Inhibition [%] |
| --- | --- |
| COc1c(CC=C(C)C)cc2c(=O)c3c(O)cc(O)cc3oc2c1OC [gl-6] | 18 |

test system: Panc 03.27; assay: Cell panel screen (CellTiter-Glo); format: cell-based, human; details: Panc 03.27 (Pancreas), 20 micromolar, 72 hrs
Experimental: as §1

| Structure (SMILES) | Percent Inhibition [%] |
| --- | --- |
| COc1c(CC=C(C)C)cc2c(=O)c3c(O)cc(O)cc3oc2c1OC [gl-6] | 45 |

test system: MSTO-211-H; assay: Cell panel screen (CellTiter-Glo); format: cell-based, human; details: MSTO-211-H (Lung), 20 micromolar, 72 hrs
Experimental: as §1

| Structure (SMILES) | Percent Inhibition [%] |
| --- | --- |
| COc1c(CC=C(C)C)cc2c(=O)c3c(O)cc(O)cc3oc2c1OC [gl-6] | 16 |

test system: TCCSUP; assay: Cell panel screen (CellTiter-Glo); format: cell-based, human; details: TCCSUP (Urinary bladder), 20 micromolar, 72 hrs
Experimental: as §1

| Structure (SMILES) | Percent Inhibition [%] |
| --- | --- |
| COc1c(CC=C(C)C)cc2c(=O)c3c(O)cc(O)cc3oc2c1OC [gl-6] | 36 |
